This note sets out measurements from ChEMBL document CHEMBL1127032, “(Dipropylphenoxy)phenylacetic acids: a new generation of nonpeptide angiotensin II receptor antagonists” (J Med Chem, 1993).

pIC50: −log10 of the molar value.

For experiment [1], the target named is T1, Type-2 angiotensin II receptor (Rattus norvegicus, UniProt P35351).
T1 sequence (P35351 whole entry): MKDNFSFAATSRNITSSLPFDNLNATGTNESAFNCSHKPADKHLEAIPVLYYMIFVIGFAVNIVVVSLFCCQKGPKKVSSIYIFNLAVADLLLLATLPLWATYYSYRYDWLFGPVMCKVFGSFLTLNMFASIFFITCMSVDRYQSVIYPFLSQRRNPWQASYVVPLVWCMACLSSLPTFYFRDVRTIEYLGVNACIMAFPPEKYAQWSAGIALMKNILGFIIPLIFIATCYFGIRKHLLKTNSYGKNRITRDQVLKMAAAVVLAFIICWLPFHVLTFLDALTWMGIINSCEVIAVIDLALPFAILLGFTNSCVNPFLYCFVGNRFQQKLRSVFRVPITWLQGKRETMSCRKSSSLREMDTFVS
Description: Displacement of […][Sar1,IIe8]AII from rat midbrain angiotensin II (AT2) receptor.

In experiment [2] the target is T2, Type-1 angiotensin II receptor (Oryctolagus cuniculus, UniProt P34976).
T2 sequence (P34976 whole entry): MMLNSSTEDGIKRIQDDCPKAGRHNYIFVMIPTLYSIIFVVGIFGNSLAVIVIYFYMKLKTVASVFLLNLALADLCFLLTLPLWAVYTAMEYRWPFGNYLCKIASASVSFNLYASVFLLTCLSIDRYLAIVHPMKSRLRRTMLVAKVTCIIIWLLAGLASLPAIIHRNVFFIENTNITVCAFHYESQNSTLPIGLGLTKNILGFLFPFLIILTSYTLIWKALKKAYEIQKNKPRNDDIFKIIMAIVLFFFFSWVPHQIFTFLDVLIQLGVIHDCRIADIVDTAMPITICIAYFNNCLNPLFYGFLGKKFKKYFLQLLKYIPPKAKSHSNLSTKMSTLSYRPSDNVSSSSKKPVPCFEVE
Kind of experiment: Displacement of […][Sar1,IIe8]AII from rabbit aorta Angiotensin II receptor, type 1. Format: tissue-based.

For orientation: pIC50 means −log10 of the IC50, conventionally taken in molar units. Higher therefore signals a low IC50. Take `CCCc1cc(Cn2c(CC)nc3c(C)cc(C)nc32)cc(CCC)c1OC(C(=O)O)c1ccccc1C` (stereo not drawn): the pIC50 in experiment [1] was 5.12; in experiment [2] it was 8.92.
The matching figures for `CCCc1cc(Cn2c(CC)nc3c(C)cc(C)nc32)cc(CCC)c1OC(C(=O)O)c1cccc(Cl)c1` (stereo not drawn): 5.64 and 9.12.
The matching figures for `CCCc1cc(Cn2c(CC)nc3c(C)cc(C)nc32)cc(CCC)c1OC(C(=O)O)c1ccccc1` (stereo not drawn): 5.59 and 9.05.
For the compound `CCCc1cc(Cn2c(CC)nc3c(C)cc(C)nc32)cc(CCC)c1OC(C(=O)O)c1cccc(C)c1` (stereo not drawn), the pIC50 in experiment [1] is 6.10; in experiment [2], 9.13.
The matching figures for `CCCc1cc(Cn2c(CC)nc3c(C)cc(C)nc32)cc(CCC)c1OC(C(=O)O)c1cccc(-c2ccccc2)c1` (stereo not drawn): 6.13 and 8.17.
Turning to `CCCc1cc(Cn2c(CC)nc3c(C)cc(C)nc32)cc(CCC)c1OC(C(=O)O)c1ccccc1Cl` (stereo not drawn), the pIC50 is 5.46 in experiment [1] and 9.28 in experiment [2].
As for `CCCc1cc(Cn2c(CC)nc3c(C)cc(C)nc32)cc(CCC)c1OC(C(=O)O)c1ccc(CC)cc1` (stereo not drawn), the negative logarithm of the IC50 (pIC50) is 6.62 in experiment [1] and 7.72 in experiment [2].
For the compound `CCCc1cc(Cn2c(CC)nc3c(C)cc(C)nc32)cc(CCC)c1OC(C(=O)O)c1ccc(C)cc1` (stereo not drawn), the pIC50 in experiment [1] is 6.40; in experiment [2], 8.40.
For `CCCc1cc(Cn2c(CC)nc3c(C)cc(C)nc32)cc(CCC)c1OC(C(=O)O)c1ccc(Oc2ccccc2)cc1` (stereo not drawn), the negative-log IC50 (pIC50) was 5.72 in experiment [1] and 8.28 in experiment [2].
As for `CCCc1cc(Cn2c(CC)nc3c(C)cc(C)nc32)cc(CCC)c1OC(C(=O)O)c1ccc(Cl)cc1` (stereo not drawn), the pIC50 was 6.35 in experiment [1] and 8.55 in experiment [2].
Turning to `CCCc1cc(Cn2c(CC)nc3c(C)cc(C)nc32)cc(CCC)c1OC(C(=O)O)c1cccc(Oc2ccccc2)c1` (stereo not drawn), the pIC50 is 5.80 in experiment [1] and 9.33 in experiment [2].
Regarding `CCc1nc2c(C)cc(C)nc2n1Cc1ccc(-c2ccccc2-c2nnn[nH]2)cc1` [L-158809], the negative-log IC50 (pIC50) in experiment [1] is < 5.00.
